# Measured values reported in patent US20130035232A1, “INDUCTION AND STABILIZATION OF ENZYMATIC ACTIVITY IN MICROORGANISMS” (GEORGIA STATE UNIVERSITY RESEARCH FOUNDATION, INC., priority 2010, published 2013).
# How the values were obtained:
# asparaginase I [1] = assay: Effect of inducer and media composition on asparaginase I production; assay type: cell-based, Rhodococcus sp. DAP 96253; conditions: inducer 1000 ppm; for Asparaginase I levels, YEMEA - Glucose With Cobalt / Asparaginase I levels, YEMEA - Glucose Without Cobalt / Asparaginase I levels, YEMEA - Maltose With Cobalt / Asparaginase I levels, YEMEA - Maltose Without Cobalt: Rhodococcus sp. DAP 96253
# Method: Testing was performed to evaluate the effect on asparaginase I activity based upon the inducer used. In particular, testing was performed using asparagine, glutamine, succinonitrile, and isovaleronitrile as inducers (all added at 1000 ppm each).
# nitrile hydratase [2] = assay: Nitrile hydratase induction by inducers (Example 1); assay type: cell-based, Rhodococcus sp., strain DAP 96253; conditions: inducer 1000 ppm; for Nitrile Hydratase Activity: Rhodococcus sp. DAP 96253, YEMEA, 10 ppm cobalt, 7.5 g/L urea
# Method: (§1) The induction of nitrile hydratase activity and amidase activity in Rhodococcus sp., strain DAP 96253, was evaluated using multiple types of inducers (1000 ppm). Three different samples were cultured in YEMEA medium containing 10 ppm cobalt and 7.5 g/L urea and supplemented with acrylonitrile, asparagine, or glutamine. The specific nitrile hydratase activity and the specific amidase activity in each sample was evaluated, and the results are provided below in Table 3, with activities provided in units/mg cdw (cell dry weight). One unit of nitrile hydratase activity relates to the ability to convert 1 μmol of acrylonitrile to its corresponding amide per minute, per milligram of cells (dry weight) at a pH of 7.0 and a temperature of 30° C. One unit of amidase activity relates to the ability to convert 1 μmol of acrylamide to its corresponding acid per minute, per milligram of cells (dry weight) pH of 7.0 and a temperature of 30° C.
# amidase [3] = assay: Amidase induction by inducers (Example 1); assay type: cell-based, Rhodococcus sp., strain DAP 96253; conditions: for Amidase Activity: Rhodococcus sp. DAP 96253, YEMEA, 10 ppm cobalt, 7.5 g/L urea, inducer 1000 ppm
# Method: as §1
# [4] = tested on: Brevibacterium ketoglutaricum ATCC 21533; assay: Growth on supplemented YEMEA (visual grade); assay type: cell-based; set-up: key: (−) meaning no detectable growth; (+/−) meaning scant growth; (+) meaning little growth; (++) meaning good growth; (+++) meaning very good growth; (++++) meaning excellent growth; conditions: 30 °C, 7.5 g/L urea, 10 ppm cobalt, supplement 3.8 mM
# Method: (§2) The relative growth of various nitrile hydratase producing microorganisms was evaluated. All strains were grown on YEMEA medium containing 7.5 g/L of urea and 10 ppm cobalt (provided as cobalt chloride) supplemented with asparagine (ASN), glutamine (GLN), or both asparagine and glutamine. The asparagine and glutamine were added at a concentration of 3.8 mM. Growth temperature was in the range of 26° C. to 30° C. Growth was evaluated by visual inspection and graded on the following scale: (−) meaning no detectable growth; (+/−) meaning scant growth; (+) meaning little growth; (++) meaning good growth; (+++) meaning very good growth; and (++++) meaning excellent growth.
# [5] = tested on: Pseudomonas chloroaphis ATCC 13985; assay: Growth on supplemented YEMEA (visual grade); assay type: cell-based; set-up: key: (−) meaning no detectable growth; (+/−) meaning scant growth; (+) meaning little growth; (++) meaning good growth; (+++) meaning very good growth; (++++) meaning excellent growth; conditions: 26 °C, 7.5 g/L urea, 10 ppm cobalt, supplement 3.8 mM
# Method: as §2
# [6] = tested on: Pseudomonas chloroaphis ATCC 43051; assay: Growth on supplemented YEMEA (visual grade); assay type: cell-based; set-up: key: (−) meaning no detectable growth; (+/−) meaning scant growth; (+) meaning little growth; (++) meaning good growth; (+++) meaning very good growth; (++++) meaning excellent growth; conditions: 30 °C, 7.5 g/L urea, 10 ppm cobalt, supplement 3.8 mM
# Method: as §2
# [7] = tested on: Rhodococcus erythropolis ATCC 47072; assay: Growth on supplemented YEMEA (visual grade); assay type: cell-based; set-up: key: (−) meaning no detectable growth; (+/−) meaning scant growth; (+) meaning little growth; (++) meaning good growth; (+++) meaning very good growth; (++++) meaning excellent growth; conditions: 26 °C, 7.5 g/L urea, 10 ppm cobalt, supplement 3.8 mM
# Method: as §2
# [8] = tested on: Rhodococcus rhodochrous DAP 96622 ATCC 55898; assay: Growth on supplemented YEMEA (visual grade); assay type: cell-based; set-up: key: (−) meaning no detectable growth; (+/−) meaning scant growth; (+) meaning little growth; (++) meaning good growth; (+++) meaning very good growth; (++++) meaning excellent growth; conditions: 26 °C, 7.5 g/L urea, 10 ppm cobalt, supplement 3.8 mM
# Method: as §2
# [9] = tested on: Rhodococcus sp. DAP 96253 ATCC 55899; assay: Growth on supplemented YEMEA (visual grade); assay type: cell-based; set-up: key: (−) meaning no detectable growth; (+/−) meaning scant growth; (+) meaning little growth; (++) meaning good growth; (+++) meaning very good growth; (++++) meaning excellent growth; conditions: 30 °C, 7.5 g/L urea, 10 ppm cobalt, supplement 3.8 mM
# Method: as §2
# nitrile hydratase [10] = assay: Nitrile hydratase production on supplemented medium; assay type: cell-based; conditions: YEMEA, urea, cobalt, supplement 3.8 mM
# Method: (§3) The induction of nitrile hydratase production and amidase production in various nitrile hydratase producing microorganisms was evaluated. All strains were grown on YEMEA medium containing 7.5 g/L of urea and 10 ppm cobalt (provided as cobalt chloride) supplemented with asparagine (ASN), glutamine (GLN), or both asparagine and glutamine. The asparagine and glutamine were added at a concentration of 3.8 mM. As a comparative, enzyme production with no supplementation was also tested. Growth temperature was in the range of 26° C. to 30° C.
# amidase [11] = assay: Amidase production on supplemented medium; assay type: cell-based; conditions: YEMEA, urea, cobalt, supplement 3.8 mM
# Method: as §3
# asparaginase I [12] = assay: Asparaginase I production on supplemented medium; assay type: cell-based; conditions: YEMEA, 7.5 g/L urea, 10 ppm cobalt
# Method: as §3, with “asparaginase I” for “nitrile hydratase production and amidase”, “production” for “production with no supplementation”, “evaluated with supplementation with acrylonitrile (AN), acrylamide (AMD) or acrylonitrile and acrylamide.” for “tested.”
# [13] = Brevibacterium ketoglutaricum ATCC 21533, 30 °C
# [14] = Pseudomonas chloroaphis ATCC 13985, 26 °C
# [15] = Pseudomonas chloroaphis ATCC 43051, 30 °C
# [16] = Rhodococcus erythropolis ATCC 47072, 26 °C
# [17] = Rhodococcus rhodochrous DAP 96622 ATCC 55898, 26 °C
# [18] = Rhodococcus sp. DAP 96253 ATCC 55899, 30 °C
structure (smiles),measurement,setting,value
"CC(C)CC#N [Isovaleronitrile, isovaleronitrile, reference compound]","Asparaginase I levels, YEMEA - Glucose With Cobalt",asparaginase I [1],2.9 units/mg cell dry weight
same,"Asparaginase I levels, YEMEA - Glucose Without Cobalt",asparaginase I [1],3.5 units/mg cell dry weight
same,"Asparaginase I levels, YEMEA - Maltose With Cobalt",asparaginase I [1],7.0 units/mg cell dry weight
same,"Asparaginase I levels, YEMEA - Maltose Without Cobalt",asparaginase I [1],6.8 units/mg cell dry weight
"N#CCCC#N [Succinonitrile, succinonitrile, reference compound]","Asparaginase I levels, YEMEA - Glucose With Cobalt",asparaginase I [1],8.5 units/mg cell dry weight
same,"Asparaginase I levels, YEMEA - Glucose Without Cobalt",asparaginase I [1],6.5 units/mg cell dry weight
same,"Asparaginase I levels, YEMEA - Maltose With Cobalt",asparaginase I [1],10.0 units/mg cell dry weight
same,"Asparaginase I levels, YEMEA - Maltose Without Cobalt",asparaginase I [1],11.0 units/mg cell dry weight
same,ability to induce asparaginase I activity,asparaginase I [1],showed an ability to induce asparaginase I activity
"NC(=O)CC[C@H](N)C(=O)O [Glutamine, glutamine]",Nitrile Hydratase Activity,nitrile hydratase [2],173.45 Units/mg cdw
same,nitrile hydratase induction compared with acrylonitrile,nitrile hydratase [2],exceeds the ability of acrylonitrile to induce such activity
same,Amidase Activity,amidase [3],10.39 Units/mg cdw
same,amidase activity greater than that resulting from acrylonitrile,"amidase [3]; relative to acrylonitrile as inducer, 1000 ppm",approximately 37%
same,Growth,[4],+
same,Growth,[5],+
same,Growth,[6],−
same,Growth,[7],++
same,Growth,[8],++++
same,Growth,[9],++++
same,Nitrile Hydratase Level Based on Growth Medium Supplementation,nitrile hydratase [10]; [13],37 Units/mg cdw
same,Nitrile Hydratase Level Based on Growth Medium Supplementation,nitrile hydratase [10]; [14],0 Units/mg cdw
same,Nitrile Hydratase Level Based on Growth Medium Supplementation,nitrile hydratase [10]; [15],No
same,Nitrile Hydratase Level Based on Growth Medium Supplementation,nitrile hydratase [10]; [16],42 Units/mg cdw
same,Nitrile Hydratase Level Based on Growth Medium Supplementation,nitrile hydratase [10]; [17],160 Units/mg cdw
same,Nitrile Hydratase Level Based on Growth Medium Supplementation,nitrile hydratase [10]; [18],135 Units/mg cdw
same,Amidase Level Based on Growth Medium Supplementation,amidase [11]; [13],0 Units/mg cdw
same,Amidase Level Based on Growth Medium Supplementation,amidase [11]; [14],0 Units/mg cdw
same,Amidase Level Based on Growth Medium Supplementation,amidase [11]; [15],No
same,Amidase Level Based on Growth Medium Supplementation,amidase [11]; [16],14 Units/mg cdw
same,Amidase Level Based on Growth Medium Supplementation,amidase [11]; [17],6 Units/mg cdw
same,Amidase Level Based on Growth Medium Supplementation,amidase [11]; [18],7 Units/mg cdw
same,Asparaginase I Level Based on Growth Medium Supplementation,asparaginase I [12]; [13],20.3 Units/mg cdw
same,Asparaginase I Level Based on Growth Medium Supplementation,asparaginase I [12]; [14],0 Units/mg cdw
same,Asparaginase I Level Based on Growth Medium Supplementation,asparaginase I [12]; [15],No
same,Asparaginase I Level Based on Growth Medium Supplementation,asparaginase I [12]; [16],2 Units/mg cdw
same,Asparaginase I Level Based on Growth Medium Supplementation,asparaginase I [12]; [17],10 Units/mg cdw
same,Asparaginase I Level Based on Growth Medium Supplementation,asparaginase I [12]; [18],11.1 Units/mg cdw
same,"Asparaginase I levels, YEMEA - Glucose With Cobalt",asparaginase I [1],1.9 units/mg cell dry weight
same,"Asparaginase I levels, YEMEA - Glucose Without Cobalt",asparaginase I [1],1.5 units/mg cell dry weight
same,"Asparaginase I levels, YEMEA - Maltose With Cobalt",asparaginase I [1],8.1 units/mg cell dry weight
same,"Asparaginase I levels, YEMEA - Maltose Without Cobalt",asparaginase I [1],9.3 units/mg cell dry weight
same,ability to induce asparaginase I activity,asparaginase I [1],showed an ability to induce asparaginase I activity
"C=CC(N)=O [AMD, acrylamide, reference compound]",Asparaginase I Level Based on Growth Medium Supplementation,asparaginase I [12]; [13],15.4 Units/mg cdw
same,Asparaginase I Level Based on Growth Medium Supplementation,asparaginase I [12]; [14],0 Units/mg cdw
same,Asparaginase I Level Based on Growth Medium Supplementation,asparaginase I [12]; [16],0 Units/mg cdw
same,Asparaginase I Level Based on Growth Medium Supplementation,asparaginase I [12]; [17],7.8 Units/mg cdw
same,Asparaginase I Level Based on Growth Medium Supplementation,asparaginase I [12]; [18],2 Units/mg cdw
"C=CC#N [Acrylonitrile, acrylonitrile, reference compound]",Nitrile Hydratase Activity,nitrile hydratase [2],162.23 Units/mg cdw
same,Amidase Activity,amidase [3],7.59 Units/mg cdw
same,Asparaginase I Level Based on Growth Medium Supplementation,asparaginase I [12]; [13],14.6 Units/mg cdw
same,Asparaginase I Level Based on Growth Medium Supplementation,asparaginase I [12]; [14],2 Units/mg cdw
same,Asparaginase I Level Based on Growth Medium Supplementation,asparaginase I [12]; [17],8.2 Units/mg cdw
same,Asparaginase I Level Based on Growth Medium Supplementation,asparaginase I [12]; [18],7.8 Units/mg cdw
